Test results reported in US9956293B2, “Targeted therapeutics” (Madrigal Pharmaceuticals, Inc., priority 2014, dated 2018).

System: HER2
Test: HER2 degradation assay with BT-474 cell line (Example 12, FACS)
Type: cell-based
Conditions: Homo sapiens
Text: HER2 Degradation Assay with BT-474 Cell Line
HER2 has emerged as a key target for anticancer drugs due to its intrinsic involvement in the phosphatidylinositol-3-kinase-Akt/protein kinase B (PI3K-Akt) and the mitogen-activated protein kinase (MAPK) pathways, both of which suppress apoptosis and promote tumor cell survival, gene transcription, angiogenesis, cellular proliferation, migration, mitosis, and differentiation. The degradation of HER2 is a measure of efficacy of anticancer therapeutics that target Hsp90. Accordingly, the SDC-TRAP molecules of the invention that comprise a binding moiety that binds Hsp90 were tested in the following HER2 degradation assay.
BT-474 cells (human breast cancer cell line ATCC HTB-20) were obtained from ATCC and seeded into 12-well tissue culture plates at 0.2×10^6/1.8 mL/well. […] Each test compound was titrated in 4-fold dilutions from 5 μM to 78 nM with DMSO and 200 μL of the titration was added to each well of the cell plate. The DMSO final concentration was 0.2%. Cells were incubated overnight at 37° C. in 5% CO2.
Media was decanted from the plate, cells were washed 1× in PBS. 400 μL trypsin (EDTA) per well was added, and the cells were incubated for 2 to 3 minutes. Cells were collected into FACS tubes containing 1 ml culture medium to neutralize the trypsin and were centrifuged for 5 minutes at 1200 rpm. Supernatant was decanted and the cells were resuspended in 5 μL FITC (anti HER2/nu)/200 μL staining buffer (1×PBS+1% FBS+0.05% Sodium Azide)/tube. Controls were […] IgG isotype control and staining buffer only. Tubes were incubated for 30 minutes in the dark at room temperature. 1 mL staining buffer was added to each tube and the tubes were centrifuged for 6 minutes at 1200 rpm. The supernatant was decanted and 300 μL staining buffer was added to each tube, which was store at 4° C. for FACS (cytometer) analysis. The cytometer readout was normalized and the potency of each compound is evaluated with IC50 calculated with XLfit™ software.

[1] = BT-474, SDC-TRAPs of the 41st table

Structure (SMILES) | IC50 (BT-474 cells) | further results
CC(C)c1cc(-c2nnc(O)n2-c2ccc3c(ccn3CCC3CCN(C(=O)c4ccc(CCc5c[nH]c6nc(N)[nH]c(=O)c56)cc4)CC3)c2)c(O)cc1O [SDC-TRAP-0130, 2-amino-5-(4-(4-(2-(5-(3-(2,4-dihydroxy-5-isopropylphenyl)-5-hydroxy-4H-1,2,4-triazol-4-yl)-1H-indol-1-yl)ethyl)piperidine-1-carbonyl)phenethyl)-3H-pyrrolo[2,3-d]pyrimidin-4(7H)-one] |  | IC50 [1]: 1.83 µM
CCc1c2c(nc3ccc(OCCn4ccc5cc(-n6c(O)nnc6-c6cc(C(C)C)c(O)cc6O)ccc54)cc13)-c1cc3c(c(=O)n1C2)COC(=O)C3(O)CC (stereo not drawn) [SDC-TRAP-0058, 9-(2-(5-(3-(2,4-dihydroxy-5-isopropylphenyl)-5-hydroxy-4H-1,2,4-triazol-4-yl)-1H-indol-1-yl)ethoxy)-4,11-diethyl-4-hydroxy-1H-pyrano[3′,4′:6,7]indolizino[1,2-b]quinoline-3,14(4H,12H)-dione] |  | IC50 (BT-474, SDC-TRAPs of the 43rd table): 2.93 µM
CC(C)c1cc(-c2nnc(O)n2-c2ccc3c(ccn3CCOCCNC(=O)O[C@H]3CC[C@@]4(C)C(=CC[C@@H]5[C@@H]4CC[C@]4(C)C(c6cccnc6)=CC[C@@H]54)C3)c2)c(O)cc1O [SDC-TRAP-0151, (3S,8R,9S,10R,13S,14S)-10,13-dimethyl-17-(pyridin-3-yl)-2,3,4,7,8,9,10,11,12,13,14,15-dodecahydro-1H-cyclopenta[a]phenanthren-3-yl (2-(2-(5-(3-(2,4-dihydroxy-5-isopropylphenyl)-5-hydroxy-4H-1,2,4-triazol-4-yl)-1H-indol-1-yl)ethoxy)ethyl)carbamate] | 1.19 µM | 
CCNC(=O)c1nnc(-c2cc(C(C)C)c(O)cc2O)n1-c1ccc(C(=O)N(C)CCOC(=O)Nc2cccc3c2CN(C2CCC(=O)NC2=O)C3=O)cc1 (stereo not drawn) [SDC-TRAP-0133, 2-(4-(3-(2,4-dihydroxy-5-isopropylphenyl)-5-(ethylcarbamoyl)-4H-1,2,4-triazol-4-yl)-N-methylbenzamido)ethyl(2-(2,6-dioxopiperidin-3-yl)-1-oxoisoindolin-4-yl)carbamate] | > 10 µM | 
CC(C)c1cc(-c2nnc(O)n2-c2ccc(CCC3CCN(C(=O)Nc4cccc5c4CN(C4CCC(=O)NC4=O)C5=O)CC3)cc2)c(O)cc1O (stereo not drawn) [SDC-TRAP-0108, 4-(4-(3-(2,4-dihydroxy-5-isopropylphenyl)-5-hydroxy-4H-1,2,4-triazol-4-yl)phenethyl)-N-(2-(2,6-dioxopiperidin-3-yl)-1-oxoisoindolin-4-yl) piperidine-1-carboxamide] | > 10 µM | 
CC(C)c1cc(-c2nnc(O)n2-c2ccc3c(c2)CN(C(=O)c2ccc(CCc4c[nH]c5nc(N)[nH]c(=O)c45)cc2)C3)c(O)cc1O [SDC-TRAP-0093, 2-amino-5-(4-(5-(3-(2,4-dihydroxy-5-isopropylphenyl)-5-hydroxy-4H-1,2,4-triazol-4-yl)isoindoline-2-carbonyl)phenethyl)-3H-pyrrolo[2,3-d]pyrimidin-4(7H)-one] |  | IC50 [1]: > 5 µM
CCNC(=O)c1nnc(-c2cc(C(C)C)c(O)cc2O)n1-c1ccc(C(=O)N[C@@H](C)C(=O)Nc2cccc3c2CN(C2CCC(=O)NC2=O)C3=O)cc1 (stereo partly drawn) [SDC-TRAP-0166, 5-(2,4-dihydroxy-5-isopropylphenyl)-4-(4-(((2S)-1-((2-(2,6-dioxopiperidin-3-yl)-1-oxoisoindolin-4-yl)amino)-1-oxopropan-2-yl)carbamoyl)phenyl)-N-ethyl-4H-1,2,4-triazole-3-carboxamide] | > 5 µM | 
CC(C)c1cc(-c2nnc(O)n2-c2ccc(N3CCN(C(=O)c4ccc(CCc5c[nH]c6nc(N)[nH]c(=O)c56)cc4)CC3)cc2)c(O)cc1O [SDC-TRAP-0082, 2-amino-5-(4-(4-(4-(3-(2,4-dihydroxy-5-isopropylphenyl)-5-hydroxy-4H-1,2,4-triazol-4-yl)phenyl)piperazine-1-carbonyl)phenethyl)-3H-pyrrolo[2,3-d]pyrimidin-4(7H)-one] |  | IC50 [1]: 1.04 µM

The next lines start with results.

IC50 (BT-474 cells) | Structure (SMILES) | further results
0.696 µM | CC(C)c1cc(-c2nnc(O)n2-c2ccc(CN3CCN(C(=O)c4ccc(COC(=O)Nc5cccc6c5CN(C5CCC(=O)NC5=O)C6=O)cc4)CC3)c(F)c2)c(O)cc1O (stereo not drawn) [SDC-TRAP-0157, 4-(4-(4-(3-(2,4-dihydroxy-5-isopropylphenyl)-5-hydroxy-4H-1,2,4-triazol-4-yl)-2-fluorobenzyl)piperazine-1-carbonyl)benzyl (2-(2,6-dioxopiperidin-3-yl)-1-oxoisoindolin-4-yl)carbamate] | 
> 5 µM | CC(C)c1cc(-c2nnc(O)n2-c2ccc3c(ccn3CCC3CCN(C(=O)Cn4cc(F)c(=O)[nH]c4=O)CC3)c2)c(O)cc1O [SDC-TRAP-0137, 1-(2-(4-(2-(5-(3-(2,4-dihydroxy-5-isopropylphenyl)-5-hydroxy-4H-1,2,4-triazol-4-yl)-1H-indol-1-yl)ethyl)piperidin-1-yl)-2-oxoethyl)-5-fluoropyrimidine-2,4(1H,3H)-dione] | 
4.35 µM | CCNC(=O)c1nnc(-c2cc(C(C)C)c(O)cc2O)n1-c1ccc(C(=O)N2CCN(C(=O)c3ccc(COC(=O)Nc4cccc5c4CN(C4CCC(=O)NC4=O)C5=O)cc3)CC2)cc1 (stereo not drawn) [SDC-TRAP-0177, 4-(4-(4-(3-(2,4-dihydroxy-5-isopropylphenyl)-5-(ethylcarbamoyl)-4H-1,2,4-triazol-4-yl)benzoyl)piperazine-1-carbonyl)benzyl (2-(2,6-dioxopiperidin-3-yl)-1-oxoisoindolin-4-yl)carbamate] | 
1.89 µM | COc1cc(O)c(-c2nnc(C(=O)NC(C)C)n2-c2ccc(CN3CCC(C(=O)Nc4cccc5c4CN(C4CCC(=O)NC4=O)C5=O)CC3)cc2)cc1C(C)C (stereo not drawn) [SDC-TRAP-0115, N-(2-(2,6-dioxopiperidin-3-yl)-1-oxoisoindolin-4-yl)-1-(4-(3-(2-hydroxy-5-isopropyl-4-methoxyphenyl)-5-(isopropylcarbamoyl)-4H-1,2,4-triazol-4-yl)benzyl)piperidine-4-carboxamide] | 
3 µM | CC(C)c1cc(-c2nnc(O)n2-c2ccc(CN3CCN(C(=O)COC(=O)Nc4cccc5c4CN(C4CCC(=O)NC4=O)C5=O)CC3)cc2)c(O)cc1O (stereo not drawn) [SDC-TRAP-0121, 2-(4-(4-(3-(2,4-dihydroxy-5-isopropylphenyl)-5-hydroxy-4H-1,2,4-triazol-4-yl)benzyl)piperazin-1-yl)-2-oxoethyl(2-(2,6-dioxopiperidin-3-yl)-1-oxoisoindolin-4-yl)carbamate] | 
> 5 µM | CC(C)c1cc(-c2nnc(O)n2-c2ccc(CC(=O)N(C)CCCOC(=O)Nc3cccc4c3CN(C3CCC(=O)NC3=O)C4=O)cc2)c(O)cc1O (stereo not drawn) [SDC-TRAP-0132, 3-(2-(4-(3-(2,4-dihydroxy-5-isopropylphenyl)-5-hydroxy-4H-1,2,4-triazol-4-yl)phenyl)-N-methylacetamido)propyl(2-(2,6-dioxopiperidin-3-yl)-1-oxoisoindolin-4-yl)carbamate] | 
0.696 µM | CCNC(=O)c1nnc(-c2cc(C(C)C)c(O)cc2O)n1-c1ccc(CN2CCC(C(=O)N(C)CCCOC(=O)Nc3cccc4c3CN(C3CCC(=O)NC3=O)C4=O)CC2)cc1 (stereo not drawn) [SDC-TRAP-0231, 3-(1-(4-(3-(2,4-dihydroxy-5-isopropylphenyl)-5-(ethylcarbamoyl)-4H-1,2,4-triazol-4-yl)benzyl)-N-methylpiperidine-4-carboxamido)propyl (2-(2,6-dioxopiperidin-3-yl)-1-oxoisoindolin-4-yl)carbamate] | 
2.12 µM | CC(C)c1cc(-c2nnc(O)n2-c2ccc(CN3CCN(C(=O)Cc4ccc(COC(=O)Nc5cccc6c5CN(C5CCC(=O)NC5=O)C6=O)cc4)CC3)c(F)c2)c(O)cc1O (stereo not drawn) [SDC-TRAP-0194, 4-(2-(4-(4-(3-(2,4-dihydroxy-5-isopropylphenyl)-5-hydroxy-4H-1,2,4-triazol-4-yl)-2-fluorobenzyl)piperazin-1-yl)-2-oxoethyl)benzyl (2-(2,6-dioxopiperidin-3-yl)-1-oxoisoindolin-4-yl)carbamate] | 
1.09 µM | CCNC(=O)c1nnc(-c2cc(C(C)C)c(O)cc2O)n1-c1ccc(C(=O)N[C@@H](CC(C)C)C(=O)Nc2cccc3c2CN(C2CCC(=O)NC2=O)C3=O)cc1 (stereo partly drawn) [SDC-TRAP-0189, 5-(2,4-dihydroxy-5-isopropylphenyl)-4-(4-(((2S)-1-((2-(2,6-dioxopiperidin-3-yl)-1-oxoisoindolin-4-yl)amino)-4-methyl-1-oxopentan-2-yl)carbamoyl)phenyl)-N-ethyl-4H-1,2,4-triazole-3-carboxamide] | 
1 to 2 µM | CCNC(=O)c1nnc(-c2cc(C(C)C)c(O)cc2O)n1-c1ccc(C(=O)N(C)CC(=O)N2CCC(n3cc(-c4cnc(N)c(O[C@H](C)c5c(Cl)ccc(F)c5Cl)c4)cn3)CC2)cc1 [SDC-TRAP-0139, (R)-4-(4-((2-(4-(4-(6-amino-5-(1-(2,6-dichloro-3-fluorophenyl)ethoxy)pyridin-3-yl)-1H-pyrazol-1-yl)piperidin-1-yl)-2-oxoethyl)(methyl)carbamoyl)phenyl)-5-(2,4-dihydroxy-5-isopropylphenyl)-N-ethyl-4H-1,2,4-triazole-3-carboxamide] | 
